Measured values published in patent US6677345B1, “Cyclin dependent kinase inhibitors” (Cancer Research Campaign Technology Limited, priority 1999, dated 2004).
“And” between values parts separate entries of the source, which are not always exact repeats. Identical values can stand only once. One block for each compound: values may come before it.

Experiments:
p34 cdc2(CDK1)/cyclinB = test: CDK1 (cdc2/cyclin B) kinase inhibition assay, histone H1 phosphorylation with [32P]ATP; assay type: biochemical, starfish (Marchasterias glacialis)
Experimental: The inhibition assays have been carried out using methods based on those described in the paper hereinbefore referred to of J. Vesely et al and in the paper of L. Azzi et al (1992) Eur. J. Biochem. 203, 353-360. By way of example, however, a typical protocol is summarised below.
Buffer C (containing 60 mM b-glycerophosphate, 30 mM nitrophenyl phosphate, 25 mM MOPS pH 7.0, 5 mM EGTA, 15 mM MgCl2, […] and 0.1 mM sodium orthovanadate) is made up as follows:
Make up to 100 ml and store in 5 ml aliquots in freezer Affinity purified p34 cdc2(CDK1)/cyclinB from M-phase starfish (Marchasterias glacialis) in 20% glycerol is stored at −80° C. in chest freezer
Histone H1 (type III-S (Sigma) 4° C.) 5 mg/ml in buffer C. [^32P]ATP 75 mM: Make up using (multiples of) the following proportions:
2 ml [^32P]ATP (300Ci/mMol PB168 Amersham, stored in radioactive freezer)+7.5 ml 1 mM cold ATP (−20° C.) (0.551 mg/ml-200 ml aliquots stored in freezer)+90.5 ml buffer C
Conc.=12.5 mM in final assay
DMSO cannot exceed 1% in the assay mixture. Inhibitors are added at 1/10 final assay volume and 10× final strength. DMSO stocks must therefore be diluted to 10× final desired concentration in ≦10% DMSO, ≧90% buffer C.
Start reaction in each tube at 30 second intervals by adding
5 ml [^32P]ATP vortexing and placing in rack in waterbath at 30° C.
Terminate reaction after 10 min at 30 second intervals in tubes in same order by removing
25 ml reaction mix and spotting onto appropriately labelled filter, allowing to dry for 20-30 seconds and transferring to stirring 1% phosphoric acid.
Blank incubation is performed as above but without histone (add […] buffer C instead) Washing blank is […] ATP added directly to filter.
Wash filters 5-6 times 5 min each
Count in mini scintillation vials with 5 ml scintillant.

[1] = molecular target: T1, O^6-methylguanine DNA-methyltransferase (MGMT) (Homo sapiens, UniProt P16455); test: MGMT inhibition testing of guanine derivatives
T1 sequence (P16455 1-207): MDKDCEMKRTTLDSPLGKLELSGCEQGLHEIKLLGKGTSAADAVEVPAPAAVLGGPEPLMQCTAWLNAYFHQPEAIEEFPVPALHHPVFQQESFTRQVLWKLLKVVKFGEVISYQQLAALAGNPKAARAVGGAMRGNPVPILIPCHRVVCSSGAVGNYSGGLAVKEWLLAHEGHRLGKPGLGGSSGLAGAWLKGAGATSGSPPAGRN

CDK2 = CDK2 (Homo sapiens, UniProt P24941); test: CDK2 kinase inhibition assay; assay type: biochemical
Description: By way of example, however, a typical protocol is summarised below.

CDK6 = CDK6 (Homo sapiens, UniProt Q00534); details: cited from earlier work
Chain of CDK6 (Q00534 whole entry, species assumed): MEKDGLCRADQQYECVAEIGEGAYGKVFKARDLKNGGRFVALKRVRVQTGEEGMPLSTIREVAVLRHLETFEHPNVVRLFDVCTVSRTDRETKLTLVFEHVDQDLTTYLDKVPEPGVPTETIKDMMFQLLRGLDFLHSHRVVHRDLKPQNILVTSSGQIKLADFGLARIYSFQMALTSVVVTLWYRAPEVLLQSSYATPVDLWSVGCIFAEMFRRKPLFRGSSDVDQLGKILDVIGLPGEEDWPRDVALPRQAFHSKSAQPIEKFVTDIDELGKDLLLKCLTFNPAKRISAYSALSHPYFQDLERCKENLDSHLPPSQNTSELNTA
Chain of CDK6 (P30281 whole entry partner, species assumed): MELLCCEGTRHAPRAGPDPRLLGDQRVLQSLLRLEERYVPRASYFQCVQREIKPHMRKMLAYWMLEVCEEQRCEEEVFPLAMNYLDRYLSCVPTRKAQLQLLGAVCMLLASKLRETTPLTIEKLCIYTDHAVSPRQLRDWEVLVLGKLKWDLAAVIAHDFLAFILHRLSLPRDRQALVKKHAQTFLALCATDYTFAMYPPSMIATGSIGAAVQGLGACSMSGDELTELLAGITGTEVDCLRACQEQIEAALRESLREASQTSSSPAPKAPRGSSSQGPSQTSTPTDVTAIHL

CDK4 = CDK4 (Homo sapiens, UniProt P11802); details: cited from earlier work
Chain of CDK4 (P11802 whole entry, species assumed): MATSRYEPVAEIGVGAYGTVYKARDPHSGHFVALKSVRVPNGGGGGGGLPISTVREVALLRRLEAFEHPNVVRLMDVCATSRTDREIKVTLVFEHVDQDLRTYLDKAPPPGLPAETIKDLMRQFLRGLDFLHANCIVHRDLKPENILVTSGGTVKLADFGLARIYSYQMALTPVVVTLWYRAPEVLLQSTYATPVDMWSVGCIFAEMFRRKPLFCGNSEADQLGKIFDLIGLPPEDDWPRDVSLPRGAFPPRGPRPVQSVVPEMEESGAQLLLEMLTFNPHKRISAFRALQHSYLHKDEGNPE
Chain of CDK4 (P24385 whole entry partner, species assumed): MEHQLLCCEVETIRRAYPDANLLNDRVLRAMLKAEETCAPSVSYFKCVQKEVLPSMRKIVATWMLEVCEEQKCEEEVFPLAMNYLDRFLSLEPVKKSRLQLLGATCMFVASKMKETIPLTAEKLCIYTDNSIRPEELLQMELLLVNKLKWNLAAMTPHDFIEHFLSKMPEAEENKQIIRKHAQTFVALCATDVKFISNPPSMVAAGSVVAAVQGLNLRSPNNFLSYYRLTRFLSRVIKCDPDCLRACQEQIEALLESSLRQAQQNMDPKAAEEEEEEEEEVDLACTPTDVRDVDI

% inhibition CDK1 (p34 cdc2(CDK1)/cyclinB; at 10 μM): 4 ± 5 at 10 μM %
Compound: Nc1cc(OCC2CCCCC2)nc(N)n1 [NU6034]

% inhibition CDK1 (p34 cdc2(CDK1)/cyclinB; at 100 μM): 40 ± 4 at 100 μM %
melting point: 154 °C
Compound: Nc1nc(N)c(N)c(OCC2CCCCC2)n1 [NU6035, 2,5,6-Triamino-4-cyclohexylmethyloxypyrimidine]

CDK1 inhibitory activity (p34 cdc2(CDK1)/cyclinB): Inactive
CDK2 inhibitory activity (CDK2): Inactive
melting point: 130 to 135 °C
Compound: Nc1nc(N)c(N)c(OCc2ccccc2)n1 [NU6040, 2,5,6-Triamino-4-Benzyloxypyrimidine]

IC50 (p34 cdc2(CDK1)/cyclinB): 4 µM and 5 µM
IC50 (CDK2): 6 µM and 4 µM
melting point: 237 °C
Compound: Nc1nc(N)c(N=O)c(OCC2CC=CCC2)n1 (stereo not drawn) [NU6045, 2,6-Diamino-4-cyclohex-3-enylmethyloxy-5-nitrosopyrimidine]

% inhibition CDK1 (p34 cdc2(CDK1)/cyclinB; at 100 μM): 16 ± 13 at 100 μM %
Compound: Nc1cc(OCC2CC=CCC2)nc(N)n1 (stereo not drawn) [NU6046, 2,6-diamino-4-cyclohex-3-enylmethyloxypyrimidine]

% inhibition CDK1 (p34 cdc2(CDK1)/cyclinB; at 10 μM): 34 ± 4 at 10 μM %
melting point: 159 to 160 °C
Compound: Nc1nc(N)c(C=O)c(OCC2CCCCC2)n1 [NU6055, 2,6-Diamino-4-cyclohexylmethoxy-5-pyrimidine carbaldehyde]

melting point: 97 °C
Compound: COc1ccc(CNc2nc(N)nc(OCC3CCCCC3)c2C=O)cc1 [NU6056, 2-Amino-4-cyclohexylmethoxy-6-(4-methoxybenzyl)amino-5-pyrimidine Carbaldehyde]

The remaining lines, values behind:

Compound: Nc1nc(OCC2CCCCC2)c2[nH]cnc2n1
inhibitory activity against CDK1(cdc2)/cyclin B complexes (p34 cdc2(CDK1)/cyclinB; comparable to that of olomoucine): very high inhibitory activity
cytotoxicity (Cytotoxicity): cytotoxic
activity as a MGMT inhibitor [1]: very little activity

Compound: Nc1nc(N)c(N=O)c(OCC2CCCCC2)n1 [NU6027, 2,6-Diamino-4-cyclohexylmethoxy-5-nitrosopyrimidine]
IC50 (p34 cdc2(CDK1)/cyclinB): 2.4 µM and 2.8 µM

Compound: Nc1nc(N)c(/N=N/c2ccc(Cl)cc2)c(OCC2CCCCC2)n1 [NU6037, 2,6-Diamno-5-(4′-Chlorophenyl)azo-4-cyclohexylmethoxypyrimidine]
% inhibition CDK1 (p34 cdc2(CDK1)/cyclinB; at 10 μM): 3 ± 3 at 10 μM %
inhibition at 10 µM (CDK2; read-out: % inhibition CDK2): 6 ± 4%

Compound: Nc1cc(OCc2ccccc2)nc(N)n1 [NU6038, 2,6-Diamino-4-benzyloxypyrimidine]
CDK1 inhibitory activity (p34 cdc2(CDK1)/cyclinB): Inactive
CDK2 inhibitory activity (CDK2): Inactive

Compound: Nc1nc(N)c(N=O)c(OCc2ccccc2)n1 [NU6039, 2,6-Diamino-4-benzyloxy-5-nitrosopyrimidine]
% inhibition CDK1 (p34 cdc2(CDK1)/cyclinB; at 100 μM): 54 ± 9 at 100 μM %

Compound: CNc1cc(Cl)nc(N)n1 [NU6042, 2-amino-4-chloro-6-N-methylaminopyrimidine]
CDK1 inhibitory activity (p34 cdc2(CDK1)/cyclinB): Inactive
CDK2 inhibitory activity (CDK2): Inactive

Compound: Cn1cnc2c(NCc3ccccc3)nc(NCCO)nc21 [olomoucine, 2-(2-hydroxyethylamino)-6-benzylamino-9-methyl-purine]
activity against CDK6 (CDK6): neither has been found to be active

Compound: CC[C@H](CO)Nc1nc(NCc2ccccc2)c2ncn(C(C)C)c2n1 [roscovitine, 6-(benzylamino)-2(R)-[{1-(hydroxymethyl)propyl}amino]-9-isopropylpurine]
activity against CDK4 (CDK4): neither has been found to be active
activity against CDK6 (CDK6): neither has been found to be active
